The results in this text go back to patent publication US20130064931A1, “INGREDIENT DELIVERY SYSTEM” (FIRMENICH SA, priority 2010, published 2013).

Series [1] can be described thus: Photostability of compound 1 under UV (xenon lamp) irradiation, HPLC/UV-DAD measurement. Type of series: physicochemical. The following applies: for photodegradation protection of compound 1 (in words): Example 8, anionic and cationic surfactants; for % remaining (compound 1) / HPLC % remaining: 25 ppm compound 1 in water; for % remaining (compound 1): irradiated 120 min; for Time for complete degradation: compound 1 in water, HPLC % remaining reached 0. On the procedure: (§1) The photostability of compound 1 under UV irradiation was studied as follows.
(§2) The sample to be irradiated was introduced into a transparent glass bottle, placed on a plate and then subjected to irradiation with a xenon lamp (Xenon lamp Suntest XLS+, Atlas Material Testing Technology LLC). The lamp was set to 650 W/m^2, the temperature was kept constant at 45° C. and the plate was turned slowly in order to assure homogeneous UV-exposure of the entire sample. After a fixed interval, the sample was removed and the content of compound 1 remaining was measured by HPLC and Fluorimetry.
Firstly, a standard solution containing 26.44 mg caffeine in 11 LC-MS grade methanol was prepared. For samples containing 10 ppm of compound 1, the sample was placed in a vial, diluted to 500 μl and 50 μl of the standard solution was added; for samples containing 25 ppm of compound 1, the sample was placed in a vial, diluted to 400 μl and 200 μl of the standard solution was added. Each vial was protected from exposure to light by being wrapped in aluminium foil.
The relative content of compound 1 in irradiated samples was calculated against the non-irradiated reference (set at 100%) using an Agilent Technologies 1200 series HPLC equipped with a degasser G1379B, a binary pump G1312B (large-volume mixer was by-passed), a well-plate high performance autosampler G1367D, a thermostatted column compartment G1316B and a UV (DAD) detector G1315C. The column (ZORBAX Eclipse Plus C18 600Bar 2.1×100 mm, 1.8 μm (#959764-902) was set at 60° C.±0.1° C. Two solvents were used: Solvent “A” was formic acid 0.1% in water, ULC/MS, Biosolve (ready-mix cat.# 23244102); solvent “B” was formic acid 0.1% in acetonitrile, ULC/MS, Biosolve (ready-mix cat. #01934125). The solvent flow rate was 0.500 ml/min; Injection: 2 μl.
Solvent gradient: 0 min-1 min: 95% A • 1 min-8 min: 95% A à 100% B • 8 min-10 min: 100% B • 10 min-12 min: 100% B à 95% A • Post-equilibration 1 min
Detector: UV-DAD: • Caffeine (internal standard): signal 273 nm, Bw 16 • Compound 1: signal 264 nm, Bw 8 • signal 230 nm, Bw 8
The signal at 264 nm was used for the quantification calculations.

Series [2] is described as follows: Photostability of compound 1 under UV (xenon lamp) irradiation, fluorimetry measurement. The class given is physicochemical. The following applies: 25 ppm compound 1 in water. On the procedure:
as §1, §2
The sample to be studied was placed in quartz cell (width lcm). Fluorescence was detected at an angle 90° to the incident exciting beam using a Fluorolog-3 spectrofluorometer (Model FL3-22, Jobin Yvon-Spex Instruments SA, Inc). […] Excitation and emission spectra of each sample were provided.
For calibration, the excitation and emission spectra of compound 1 solutions were measured before and after irradiation. The intensity of the emission maximum of the unirradiated solution was given the value as 100%. The ratio between the intensities of emission maxima of irradiated and unirradiated samples was measured and the results calculated as a percentage.

As for `CCCCCCCCCCCCCCCC[N+](C)(C)C.[Br-]` [CTAB, Cetyl trimethylammonium bromide, reference compound], the “photodegradation protection of compound 1 (in words)” value in series [1] was “little or no photodegradation protection”.

As for `CCCNC(=O)C(C)(C)COc1cccc2c1C(N)=NS(=O)(=O)N2` [Compound 1], the “% remaining (compound 1)” value in series [1] (Polysorbate 80 concentration 0.0001572 % w/w) is recorded as 0%; in series [1] (Polysorbate 80 concentration 0.0002145 % w/w), 0%; in series [1] (Polysorbate 80 concentration 0.001572 % w/w), 0%; in series [1] (Polysorbate 80 concentration 0.008 % w/w), 0%; in series [1] (Polysorbate 80 concentration 0.01 % w/w) it was 0%; in series [1] (Polysorbate 80 concentration 0.05 % w/w) it was 6.55%. Moreover, the “% remaining (compound 1)” value in series [1] (Polysorbate 80 concentration 0.1 % w/w) was 6.81%; in series [1] (Polysorbate 80 concentration 0.5 % w/w) it was 12.97%; in series [1] (Polysorbate 80 concentration 1 % w/w), 22.24%; in series [1] (Polysorbate 80 concentration 4 % w/w), 47%; in series [1] (Polysorbate 80 concentration 8.5 % w/w) it was 88.57%; in series [1] (Polysorbate 80 concentration 15 % w/w), 97.03%. In addition, the HPLC % remaining came to 100% in series [1] (time of irradiation 0 min (non-irradiated reference set at 100%)); 79.7% in series [1] (time of irradiation 5 min); 62.2% in series [1] (time of irradiation 10 min); 46.3% in series [1] (time of irradiation 20 min); 32.3% in series [1] (time of irradiation 30 min); 24.8% in series [1] (time of irradiation 45 min). In addition, the HPLC % remaining in series [1] (time of irradiation 60 min) came to 18.7%; in series [1] (time of irradiation 90 min), 6.9%; in series [1] (time of irradiation 120 min), 0%; in series [1] (time of irradiation 180 min), 0%. For the same compound, the “Time for complete degradation” value in series [1] (initial concentration 5 ppm) is on record as 45 min; in series [1] (initial concentration 10 ppm), 60 min; in series [1] (initial concentration 15 ppm) it was 90 min; in series [1] (initial concentration 25 ppm) it was 120 min; in series [1] (initial concentration 40 ppm), more than 180 min. The Fluorimetry % remaining was 100% in series [2] (time of irradiation 0 min (unirradiated solution given the value 100%)); 91.3% in series [2] (time of irradiation 5 min); 78.5% in series [2] (time of irradiation 10 min); 52.2% in series [2] (time of irradiation 20 min); 38.7% in series [2] (time of irradiation 30 min); 27.8% in series [2] (time of irradiation 45 min). Moreover, the Fluorimetry % remaining in series [2] (time of irradiation 60 min) was determined as 21.3%; in series [2] (time of irradiation 90 min), 16.2%; in series [2] (time of irradiation 120 min) it was 12.7%; in series [2] (time of irradiation 180 min) it was 6.4%.

For the compound `CCCCCCCCCCCCOS(=O)(=O)[O-].[Na+]` [SDS, Sodium dodecyl sulphate, reference compound], in series [1], the “photodegradation protection of compound 1 (in words)” value is “little or no photodegradation protection”.
